Data taken from the supplement of paper PMC10307832.

Assays:
Assay in all cases: relative viability (nuclei count vs DMSO), 5 days (fraction); higher = more cells survive
[1] = compound: CN(c1ncccc1CNc1nc(Nc2ccc3c(c2)CC(=O)N3)ncc1C(F)(F)F)S(C)(=O)=O + COc1cccc2cc(-c3nc([C@H]4CC[C@H](C(=O)O)CC4)n4ncnc(N)c34)[nH]c12 [OSI-027] (partner 0.5 µM)
In short: (§1)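 Medians of duplicate plates are given as relative viability. That measure is the nuclei count in treated wells divided by the count in vehicle wells. Counts were taken on 4× images of lung cancer cell lines in 1536-well plates, 5 days after pin-tool dosing the day after seeding with one drug alone or a fixed anchor-drug dose plus five library-drug doses (not always all listed) in √10 steps.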

[2] = compound: CN(c1ncccc1CNc1nc(Nc2ccc3c(c2)CC(=O)N3)ncc1C(F)(F)F)S(C)(=O)=O + CS(=O)(=O)CCNCc1ccc(-c2ccc3ncnc(Nc4ccc(OCc5cccc(F)c5)c(Cl)c4)c3c2)o1 [Lapatinib] (partner 2 µM)
In short: as §1

[3] = compound: CN(c1ncccc1CNc1nc(Nc2ccc3c(c2)CC(=O)N3)ncc1C(F)(F)F)S(C)(=O)=O + C[C@]1(O)C[C@@H](c2nc(-c3ccc4ccc(-c5ccccc5)nc4c3)c3c(N)nccn32)C1 [Linsitinib] (partner 1 µM)
In short: as §1

[4] = compound: CN(c1ncccc1CNc1nc(Nc2ccc3c(c2)CC(=O)N3)ncc1C(F)(F)F)S(C)(=O)=O + Cc1nc(NC(=O)N2CCC[C@H]2C(N)=O)sc1-c1ccnc(C(C)(C)C(F)(F)F)c1 [Alpelisib] (partner 2 µM)
In short: as §1

Cell Line	relative viability ([1]; first compound 0.01 µM)	relative viability ([1]; first compound 0.03162 µM)	relative viability ([1]; first compound 0.1 µM)	relative viability ([1]; first compound 0.3162 µM)	relative viability ([1]; first compound 1 µM)	relative viability ([2]; first compound 0.01 µM)	relative viability ([2]; first compound 0.03162 µM)	relative viability ([2]; first compound 0.1 µM)	relative viability ([2]; first compound 0.3162 µM)	relative viability ([2]; first compound 1 µM)	relative viability ([3]; first compound 0.01 µM)	relative viability ([3]; first compound 0.03162 µM)	relative viability ([3]; first compound 0.1 µM)	relative viability ([3]; first compound 0.3162 µM)	relative viability ([3]; first compound 1 µM)	relative viability ([4]; first compound 0.01 µM)	relative viability ([4]; first compound 0.03162 µM)	relative viability ([4]; first compound 0.1 µM)	relative viability ([4]; first compound 0.3162 µM)	relative viability ([4]; first compound 1 µM)
NCI-H1666	0.779	0.841	0.792	0.695	0.556	0.678	0.624	0.611	0.546	0.493	0.814	0.816	0.943	0.72	0.612	1.11	0.72	0.877	0.79	0.686
NCI-H1734	0.581	0.612	0.534	0.609	0.545	0.993	1.17	1.06	1.1	1.05	0.939	1.01	0.796	0.966	0.751	0.665	0.778	0.666	0.631	0.641
NCI-H1755	0.708	0.789	0.737	0.678	0.699	1.09	1.08	1.01	0.961	0.957	0.997	0.951	0.961	0.979	0.908	0.904	0.946	0.94	0.82	0.848
NCI-H1792	0.787	0.892	0.736	0.697	0.688	0.93	0.937	0.905	0.827	0.835	0.442	0.487	0.512	0.566	0.559	0.661	0.68	0.654	0.695	0.728
NCI-H1793	0.238	0.276	0.246	0.288	0.297	0.542	0.654	0.79	0.575	0.691	0.883	0.929	0.894	0.857	0.601	0.77	0.765	0.611	0.674	0.659
NCI-H1915	0.639	0.625	0.607	0.684	0.615	0.99	0.919	0.912	0.93	0.969	1.1	1.1	0.983	1.1	1.02	1.07	1.1	1.03	1.05	1.02
NCI-H1944	0.401	0.445	0.38	0.453	0.439	0.815	0.898	0.782	0.869	0.792	1.22	1.18	1.16	1.13	1.28	0.742	0.955	0.805	0.86	0.918
NCI-H1975	0.747	0.675	0.796	0.694	0.615	0.921	0.971	0.914	0.926	0.723	1.01	1.22	1.02	0.925	0.821	0.66	0.592	0.611	0.67	0.59
